Assay [1] has as its system 3T3-L1 adipocytes. The experiment in a line: Intracellular Ca2+ by fura-2 imaging in adipocytes. The class given is cell-based. The procedure:
Cell culture: 3T3-L1 pre-adipocytes were incubated at a density of 8000 cells/cm^2 (10 cm^2 dish) and grown in the absence of insulin in Dulbecco's modified Eagle's medium (DMEM) containing 10% FBS and antibiotics (1% penicillin-streptomycin)(adipocyte medium) at 37° C. in 5% CO2 in air. Confluent pre-adipocytes were induced to differentiate with a standard differentiation medium consisting of DMEM-F10 (1:1, vol/vol) medium supplemented with 1% fetal bovine serum (FBS), 250 nM dexamethasone (DEXA), isobutylmethylxanthine (IBMX) (0.5 mM) and antibiotics. Pre-adipocytes were maintained in this differentiation medium for 3 days (unless specifically indicated) and subsequently cultured in adipocyte medium. Cultures were re-fed every 2-3 days to allow 90% cells to reach fully differentiation before treatment.
Intracellular Ca^2+ ([Ca^2+]i): [Ca^2+]i was measured using a fura-2 dual wavelength fluorescence imaging system. Adipocytes were plated and differentiated in 35 mm dishes with glass coverslips (P35G-0-14-C, MatTek Corporation). Prior to [Ca^2+]i measurement, cells were preincubated in serum-free medium overnight and rinsed with Hepes Balanced Salt Solution (HBSS) containing the following components (in mM): NaCl 138, CaCl2 1.8, MgSO4 0.8, NaH2PO4 0.9, NaHCO3 4, glucose 5, glutamine 6, Hepes 20, and bovine serum albumin 1%. Cells were loaded with fura-2 acetoxymethyl ester (AM) (10 μM) in the same buffer for 2 hr at 37° C. in a dark incubator with 5% CO2. To remove extracellular dye, cells were rinsed with HBSS 3 times and then postincubated at room temperature for an additional 1 hr for complete hydrolysis of cytoplasmic fura-2 AM. The dishes with dye-loaded cells were mounted on the stage of Nikon TMS-F fluorescence inverted microscope with a Cohu 4915 CCD camera. Fluorescent images were captured alternatively at excitation wavelength of […] with an emission wavelength of 520 nm. [Ca^2]i was calculated using a standard ratio equation. Each analysis evaluated responses of 8-10 representative whole cells. Images were analyzed with InCytIm2 version 4.62 imaging software (Intracellular Imaging, Cincinnati, Ohio). Images were calibrated using a fura-2 calcium imaging calibration kit (Molecular Probes, Eugene, Oreg.) to create a calibration curve in solution, and cellular calibration was accomplished using digitonin (25 μM) and pH 8.7 Tris-EGTA (100 mM) to measure maximal and minimal [Ca^2+]i levels.

For assay [2], the system named is C2C12 myotubes. The experiment in a line: Fatty acid oxidation (O2 consumption response to palmitate) in myotubes. The class given is cell-based. The settings on record: vs control. On the procedure:
Cell Culture: C2C12 and 3T3-L1 preadipocytes (American Type Culture Collection) were plated at a density of 8000 cells/cm^2 (10 cm^2 dish) and grown in Dulbecco's modified eagle's medium (DMEM) containing 10% fetal bovine serum (FBS), and antibiotics (growth medium) at 37° C. in 5% CO2. Confluent 3T3-L1 preadipocytes were induced to differentiate with a standard differentiation medium consisting of DMEM medium supplemented with 10% FBS, 250 nM dexamethasone, 0.5 mM 3-Isobutyl-1-methylxanthine (IBMX) and 1% penicillin-streptomycin. Preadipocytes were maintained in this differentiation medium for 3 days and subsequently cultured in growth medium. Cultures were re-fed every 2-3 days to allow >90% cells to reach fully differentiation before conducting chemical treatment. For differentiation of C2C12 cells, cells were grown to 100% confluence, transferred to differentiation medium (DMEM with 2% horse serum and 1% penicillin-streptomycin), and fed with fresh differentiation medium every day until myotubes were fully formed (3 days). Fatty acid oxidation: Cellular oxygen consumption was measured using a Seahorse Bioscience XF24 analyzer (Seahorse Bioscience, Billerica, Mass.) in 24-well plates at 37° C., as described by Feige et al (1) with slight modifications. Cells were seeded at 40,000 cells per well, differentiated as described above, treated for 24 hours with the indicated treatments, washed twice with non-buffered carbonate-free pH 7.4 low glucose (2.5 mM) DMEM containing carnitine (0.5 mM), equilibrated with 550 μL of the same media in a non-CO2 incubator for 45 minutes, and then inserted into the instrument for 15 minutes of further equilibration, followed by O2 consumption measurement. Three successive baseline measurements at five-minute intervals were taken prior to injection of palmitate (200 μM final concentration). Four successive 5-minute measurements of O2 consumption were then conducted, followed by 10 minute re-equilibration and another 3-4 5-minute measurements. This measurement pattern was then repeated over a 4-6 hour period. Data for each sample were normalized to the pre-palmitate injection baseline for that sample and expressed as % change from that baseline. […] The area under of the curve of O2 consumption change from baseline for each sample was then calculated and used for subsequent analysis.

The test system of assay [3] is C2C12 myotubes. The experiment in a line: Glucose utilization (extracellular acidification) in myotubes. It counts as cell-based. To be noted: FIG. 9. On the procedure: (§1) Cell Culture: C2C12 and 3T3-L1 preadipocytes (American Type Culture Collection) were plated at a density of 8000 cells/cm^2 (10 cm^2 dish) and grown in Dulbecco's modified eagle's medium (DMEM) containing 10% fetal bovine serum (FBS), and antibiotics (growth medium) at 37° C. in 5% CO2. Confluent 3T3-L1 preadipocytes were induced to differentiate with a standard differentiation medium consisting of DMEM medium supplemented with 10% FBS, 250 nM dexamethasone, 0.5 mM 3-Isobutyl-1-methylxanthine (IBMX) and 1% penicillin-streptomycin. Preadipocytes were maintained in this differentiation medium for 3 days and subsequently cultured in growth medium. Cultures were re-fed every 2-3 days to allow >90% cells to reach fully differentiation before conducting chemical treatment. […]
(§2) Glucose Utilization: In the absence of a fatty acid source and oxidative metabolism, glycolysis and subsequent lactate production results in extracellular acidification, which was also measured using a Seahorse Bioscience XF24 analyzer. […] Data for each sample were normalized to the pre-glucose injection baseline for that sample and expressed as % change from that baseline. The area under of the curve of extracellular acidification change from baseline for each sample was the calculated and used for subsequent analysis.

Assay [4] has as its system 3T3-L1 adipocytes. Kind of assay: Glucose utilization (extracellular acidification) in adipocytes. It counts as cell-based. The settings on record: FIG. 10. On the procedure: as §1, §2
For assay [5], the system named is Phospho-AMPKα (Thr172). Kind of assay: Phospho-AMPKα (Thr172) Western blot in myotubes. It counts as cell-based. To be noted: C2C12 myotubes, FIG. 11. On the procedure: (§3) Cell Culture: C2C12 and 3T3-L1 preadipocytes (American Type Culture Collection) were plated at a density of 8000 cells/cm^2 (10 cm^2 dish) and grown in Dulbecco's modified eagle's medium (DMEM) containing 10% fetal bovine serum (FBS), and antibiotics (growth medium) at 37° C. in 5% CO2. Confluent 3T3-L1 preadipocytes were induced to differentiate with a standard differentiation medium consisting of DMEM medium supplemented with 10% FBS, 250 nM dexamethasone, 0.5 mM 3-Isobutyl-1-methylxanthine (IBMX) and 1% penicillin-streptomycin. Preadipocytes were maintained in this differentiation medium for 3 days and subsequently cultured in growth medium. Cultures were re-fed every 2-3 days to allow >90% cells to reach fully differentiation before conducting chemical treatment. For differentiation of C2C12 cells, cells were grown to 100% confluence, transferred to differentiation medium (DMEM with 2% horse serum and 1% penicillin-streptomycin), and fed with fresh differentiation medium every day until myotubes were fully formed (3 days).
Western blot: The Phospho-AMPKα (Thr172)- and Sirt1 (mouse specific)-antibody was obtained from Cell Signaling (Danvers, Mass.). C2C12 myotubes were treated as indicated in results and the cellular fractions were prepared using standard methods. Protein was measured by BCA kit (Thermo Scientific). […] Visualization and chemiluminescent detection was conducted using BioRad ChemiDoc instrumentation and software (Bio-Rad Laboratories, Hercules, Calif.) and band intensity was assessed using Image Lab 4.0 (Bio-Rad Laboratories, Hercules, Calif.), with correction for background and loading controls. P-AMPK was detected at 61-66 kDA and Sirt1 was detected at 104-115 kDA.

Assay [6] deals with Sirt1. Kind of assay: Sirt1 protein expression Western blot in myotubes. It counts as cell-based, mouse. To be noted: C2C12 myotubes, FIG. 12. On the procedure:
as §1
Western blot: The Phospho-AMPKα (Thr172)- and Sirt1 (mouse specific)-antibody was obtained from Cell Signaling (Danvers, Mass.). […] Protein was measured by BCA kit (Thermo Scientific). […] Visualization and chemiluminescent detection was conducted using BioRad ChemiDoc instrumentation and software (Bio-Rad Laboratories, Hercules, Calif.) and band intensity was assessed using Image Lab 4.0 (Bio-Rad Laboratories, Hercules, Calif.), with correction for background and loading controls. P-AMPK was detected at 61-66 kDA and Sirt1 was detected at 104-115 kDA.
In general terms: Immunoblotting shows a protein as a band on a membrane.

The subject of assay [7] is 3T3-L1 adipocytes. Kind of assay: Fatty acid oxidation (O2 consumption response to palmitate) in adipocytes. It counts as cell-based. The settings on record: FIG. 8, % change from control. On the procedure:
as §1
Fatty acid oxidation: Cellular oxygen consumption was measured using a Seahorse Bioscience XF24 analyzer (Seahorse Bioscience, Billerica, Mass.) in 24-well plates at 37° C., as described by Feige et al (1) with slight modifications. […] Data for each sample were normalized to the pre-palmitate injection baseline for that sample and expressed as % change from that baseline. […] The area under of the curve of O2 consumption change from baseline for each sample was then calculated and used for subsequent analysis.

Assay [8] relates to C2C12 myotubes. Kind of assay: Mitochondrial biogenesis (mitochondrial mass, NAO probe). It counts as cell-based. The settings on record: FIG. 13. The procedure: as §3, with “days). Mitochondrial biogenesis: Mitochondrial biogenesis was assessed as change in mitochondrial mass, as previously described (2). The mitochondrial probe NAO (Invitrogen, Carlsbad, Calif.) was used to analyze mitochondrial mass by fluorescence (excitation 485 nm and emission 520 nm) and quantitative data was obtained with a fluorescence microplate reader (Synergy HT, BioTek Instruments, Winooski, Vt.). The intensity of fluorescence was expressed as arbitrary units per μg protein and normalized to control values within each assay.” for “days).”

Setting [9] is: FIG. 4/5, 24 hours, leucine, valine, isoleucine 0.5 mM, B6 100 nM as pyridoxal phosphate.

Marks after values point to notes of the source that are not given here.

Turning to `Cc1ncc(COP(=O)(O)O)c(C=O)c1O` [PLP, pyridoxal phosphate], the “Intracellular Ca2+” value is recorded as 133.2^c ± nM in assay [1] (PLP 50 nM) and 96.3^b ± nM in assay [1] (PLP 100 nM). For the same molecule, the “increase in fatty acid oxidation” value in assay [2] (setting [9]) is “no significant independent effect”. Also, the “increase in glucose utilization” value in assay [3] and in assay [4] was “no independent effect” throughout. Further, in assay [5], the “AMPK activation (Phosphorylated AMPK Thr172), increase” value was “Neither treatment with leucine, valine, nor B6 alone exerted any significant effect”. For the same molecule, the “Sirt1 protein levels, increase” value in assay [6] is given as “unaffected”.
For the molecule `CC[C@H](C)[C@H](N)C(=O)O` [isoleucine], the “increase in fatty acid oxidation” value in assay [2] (setting [9]) is reported as “small change in fatty acid oxidation when compared to control”; in assay [7] it was “small change from baseline”. For the same molecule, the “increase in mitochondrial biogenesis (mitochondrial biomass)” value (“increase in mitochondrial biogenesis” for short) in assay [8] was “no significant effect”.
Turning to `CN(C)C(=N)N=C(N)N` [metformin], the “increase in fatty acid oxidation” value in assay [2] (FIG. 6/7, metformin 100 μM) was “comparable effect”. Further, in assay [8], the “increase in mitochondrial biogenesis” value is “effect similar to leucine”.
As to `CC(C)[C@H](N)C(=O)O` [valine], the “increase in fatty acid oxidation” value in assay [2] (setting [9]) is listed as “small change in fatty acid oxidation when compared to control”. Further, in assay [5], the “AMPK activation (Phosphorylated AMPK Thr172), increase” value is “Neither treatment with leucine, valine, nor B6 alone exerted any significant effect”. Further, in assay [8], the “increase in mitochondrial biogenesis” value is given as “no significant effect”.

These data come from patent publication US9901573B2, “Compositions, methods, and kits for regulating energy metabolism” (NuSirt Sciences, Inc., priority 2012, dated 2018).
